Test results: patent US10239869B2, “Sulfonamide compounds as voltage-gated sodium channel modulators” (LUPIN LIMITED, priority 2015, dated 2019)
Where two headings read alike, the source gives them in different places.

What was measured:
Nav 1.7 = Nav 1.7 (Homo sapiens (Human), UniProt Q15858); assay: Inhibition of sodium channels, Red Membrane Potential Dye FLIPR assay, veratridine depolarization; format: cell-based; details: HEK-293 cells overexpressing the channel; read-out: Nav1.7 IC50
Nav 1.5 = Nav 1.5 (Homo sapiens (Human), UniProt Q14524); assay: as above; format: cell-based; details: HEK-293 cells overexpressing the channel; for inhibition at 10 µM: HEK-293 cells overexpressing Nav 1.5
Nav 1.5, sequence (Q14524 whole entry): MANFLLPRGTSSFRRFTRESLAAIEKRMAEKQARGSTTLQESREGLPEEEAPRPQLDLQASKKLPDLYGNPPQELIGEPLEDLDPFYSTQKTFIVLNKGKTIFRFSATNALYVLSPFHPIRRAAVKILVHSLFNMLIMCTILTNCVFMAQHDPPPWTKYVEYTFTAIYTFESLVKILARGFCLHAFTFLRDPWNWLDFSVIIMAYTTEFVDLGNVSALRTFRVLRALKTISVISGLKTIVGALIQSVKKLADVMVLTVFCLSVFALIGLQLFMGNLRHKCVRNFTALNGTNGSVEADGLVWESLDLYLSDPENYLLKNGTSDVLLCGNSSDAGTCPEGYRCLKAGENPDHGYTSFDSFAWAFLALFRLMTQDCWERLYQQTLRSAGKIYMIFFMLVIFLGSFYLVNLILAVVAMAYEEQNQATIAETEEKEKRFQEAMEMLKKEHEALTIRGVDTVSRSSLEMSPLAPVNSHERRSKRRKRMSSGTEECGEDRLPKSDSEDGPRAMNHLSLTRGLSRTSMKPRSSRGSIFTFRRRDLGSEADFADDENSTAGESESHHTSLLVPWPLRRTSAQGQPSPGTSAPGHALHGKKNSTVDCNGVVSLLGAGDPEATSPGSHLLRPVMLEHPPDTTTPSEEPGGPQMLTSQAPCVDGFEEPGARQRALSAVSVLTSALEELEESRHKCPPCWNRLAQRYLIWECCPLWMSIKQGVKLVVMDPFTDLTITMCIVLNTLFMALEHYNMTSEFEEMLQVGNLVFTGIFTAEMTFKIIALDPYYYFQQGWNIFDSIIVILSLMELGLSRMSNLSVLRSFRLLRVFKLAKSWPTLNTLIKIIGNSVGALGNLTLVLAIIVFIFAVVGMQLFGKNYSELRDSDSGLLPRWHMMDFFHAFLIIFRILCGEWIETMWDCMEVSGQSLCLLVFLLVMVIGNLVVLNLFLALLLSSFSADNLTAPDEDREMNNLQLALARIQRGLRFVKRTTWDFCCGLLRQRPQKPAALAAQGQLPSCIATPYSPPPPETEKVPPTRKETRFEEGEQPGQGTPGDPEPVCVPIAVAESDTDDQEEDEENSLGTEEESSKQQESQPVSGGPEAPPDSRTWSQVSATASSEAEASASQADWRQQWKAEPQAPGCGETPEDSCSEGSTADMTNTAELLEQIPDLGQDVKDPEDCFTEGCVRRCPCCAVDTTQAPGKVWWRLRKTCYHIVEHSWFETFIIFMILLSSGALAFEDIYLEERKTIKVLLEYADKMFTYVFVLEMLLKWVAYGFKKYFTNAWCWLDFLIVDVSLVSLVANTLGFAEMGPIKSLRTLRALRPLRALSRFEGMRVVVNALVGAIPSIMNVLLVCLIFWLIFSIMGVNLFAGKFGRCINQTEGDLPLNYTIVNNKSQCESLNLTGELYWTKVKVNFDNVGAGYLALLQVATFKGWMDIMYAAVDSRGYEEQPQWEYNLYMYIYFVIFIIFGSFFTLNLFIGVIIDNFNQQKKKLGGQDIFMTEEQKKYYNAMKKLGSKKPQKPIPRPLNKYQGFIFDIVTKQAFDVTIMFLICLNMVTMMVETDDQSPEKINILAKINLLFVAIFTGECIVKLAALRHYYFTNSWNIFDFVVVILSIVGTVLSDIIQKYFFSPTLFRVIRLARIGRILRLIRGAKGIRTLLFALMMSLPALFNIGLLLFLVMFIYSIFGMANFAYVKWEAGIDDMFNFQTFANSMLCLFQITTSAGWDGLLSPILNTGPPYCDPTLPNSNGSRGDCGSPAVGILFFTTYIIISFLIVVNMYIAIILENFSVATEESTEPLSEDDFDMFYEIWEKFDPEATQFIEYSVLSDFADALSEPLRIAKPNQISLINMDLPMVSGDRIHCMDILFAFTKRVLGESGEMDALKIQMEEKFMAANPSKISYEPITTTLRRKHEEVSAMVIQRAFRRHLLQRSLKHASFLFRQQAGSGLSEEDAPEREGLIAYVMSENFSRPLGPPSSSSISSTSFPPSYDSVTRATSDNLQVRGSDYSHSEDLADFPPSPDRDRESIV

[1] = read-out: Nav1.5 IC50 (bound given in μM)

Nav 1.7, sequence (Q15858 whole entry): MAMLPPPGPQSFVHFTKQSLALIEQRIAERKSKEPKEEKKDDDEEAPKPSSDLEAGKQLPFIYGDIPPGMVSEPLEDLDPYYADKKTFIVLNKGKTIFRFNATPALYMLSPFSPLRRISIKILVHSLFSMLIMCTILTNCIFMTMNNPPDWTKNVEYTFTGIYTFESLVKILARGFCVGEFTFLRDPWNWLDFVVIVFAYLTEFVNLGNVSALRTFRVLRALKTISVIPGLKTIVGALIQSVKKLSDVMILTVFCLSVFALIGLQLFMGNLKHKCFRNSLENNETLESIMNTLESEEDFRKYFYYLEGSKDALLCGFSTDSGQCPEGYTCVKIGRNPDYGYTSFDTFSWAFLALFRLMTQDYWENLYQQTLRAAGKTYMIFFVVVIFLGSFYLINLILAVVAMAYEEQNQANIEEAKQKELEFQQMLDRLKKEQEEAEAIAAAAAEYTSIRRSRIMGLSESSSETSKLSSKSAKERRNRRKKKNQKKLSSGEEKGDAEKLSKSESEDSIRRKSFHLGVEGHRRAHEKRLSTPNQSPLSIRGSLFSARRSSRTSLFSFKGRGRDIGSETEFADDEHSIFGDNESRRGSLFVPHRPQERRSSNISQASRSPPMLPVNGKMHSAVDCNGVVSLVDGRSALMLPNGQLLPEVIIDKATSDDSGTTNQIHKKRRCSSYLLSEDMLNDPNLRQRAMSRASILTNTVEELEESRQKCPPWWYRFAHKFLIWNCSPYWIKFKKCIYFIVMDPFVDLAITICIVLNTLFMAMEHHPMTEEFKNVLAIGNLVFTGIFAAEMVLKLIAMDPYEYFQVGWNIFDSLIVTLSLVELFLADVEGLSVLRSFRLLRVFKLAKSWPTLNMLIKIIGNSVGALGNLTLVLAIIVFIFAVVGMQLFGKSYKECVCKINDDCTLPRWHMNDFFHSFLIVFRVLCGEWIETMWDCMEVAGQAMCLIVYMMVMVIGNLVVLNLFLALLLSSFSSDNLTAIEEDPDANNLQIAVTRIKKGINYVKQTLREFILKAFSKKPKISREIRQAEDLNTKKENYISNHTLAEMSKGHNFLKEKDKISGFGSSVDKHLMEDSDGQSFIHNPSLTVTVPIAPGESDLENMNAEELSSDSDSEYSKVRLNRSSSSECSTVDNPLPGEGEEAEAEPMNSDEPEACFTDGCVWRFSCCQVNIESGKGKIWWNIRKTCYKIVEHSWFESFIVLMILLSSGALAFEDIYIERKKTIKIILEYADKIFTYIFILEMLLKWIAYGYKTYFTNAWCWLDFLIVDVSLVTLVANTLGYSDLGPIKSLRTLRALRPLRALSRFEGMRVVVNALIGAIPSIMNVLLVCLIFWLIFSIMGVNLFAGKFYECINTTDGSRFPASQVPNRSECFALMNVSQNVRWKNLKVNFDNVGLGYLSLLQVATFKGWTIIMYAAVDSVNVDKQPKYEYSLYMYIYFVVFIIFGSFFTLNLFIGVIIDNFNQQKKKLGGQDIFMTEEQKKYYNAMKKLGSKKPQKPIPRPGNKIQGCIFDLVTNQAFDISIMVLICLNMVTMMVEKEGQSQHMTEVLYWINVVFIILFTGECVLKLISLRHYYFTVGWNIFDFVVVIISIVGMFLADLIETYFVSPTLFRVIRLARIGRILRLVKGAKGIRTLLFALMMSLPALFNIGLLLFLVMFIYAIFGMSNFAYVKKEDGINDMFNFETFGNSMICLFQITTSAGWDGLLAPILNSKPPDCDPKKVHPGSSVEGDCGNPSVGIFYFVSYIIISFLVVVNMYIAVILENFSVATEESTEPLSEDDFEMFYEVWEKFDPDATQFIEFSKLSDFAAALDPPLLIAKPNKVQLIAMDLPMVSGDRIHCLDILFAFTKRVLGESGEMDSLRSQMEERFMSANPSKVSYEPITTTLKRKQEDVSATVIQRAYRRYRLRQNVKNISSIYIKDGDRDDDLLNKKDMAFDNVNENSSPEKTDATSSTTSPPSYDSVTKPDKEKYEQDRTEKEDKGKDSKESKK

SMILES | IC50 (Nav 1.7) [nM] | IC50 (Nav 1.5; read-out: Nav1.5 IC50) [µM] | IC50 (Nav 1.5; [1]) [µM] | inhibition at 10 µM (Nav 1.5) [%]
COCCCc1cc(C(F)(F)F)ccc1[C@H]1CCOc2cc(S(=O)(=O)Nc3cccc(F)n3)ccc21 (racemic) [Example 145, (R/S)—N-(6-fluoropyridin-2-yl)-4-(2-(3-methoxypropyl)-4-(trifluoromethyl)phenyl)chroman-7-sulfonamide] | 19 | 2.41 |  | 
COCCCCc1cc(C(F)(F)F)ccc1[C@H]1CCOc2cc(S(=O)(=O)Nc3ncc(F)cn3)ccc21 (racemic) [Example 148, (R/S)—N-(5-fluoropyrimidin-2-yl)-4-(2-(4-methoxybutyl)-4-(trifluoromethyl)phenyl)chroman-7-sulfonamide] | 172 |  | > 10 | 
COCCCCc1cc(C(F)(F)F)ccc1[C@H]1CCOc2cc(S(=O)(=O)Nc3ccncn3)ccc21 (racemic) [Example 149, (R/S)-4-(2-(4-methoxybutyl)-4-(trifluoromethyl)phenyl)-N-(pyrimidin-4-yl)chroman-7-sulfonamide] | 21 |  |  | 58
COCCCCc1cc(C(F)(F)F)ccc1[C@H]1CCOc2cc(S(=O)(=O)Nc3cccnn3)ccc21 (racemic) [Example 150, (R/S)-4-(2-(4-methoxybutyl)-4-(trifluoromethyl)phenyl)-N-(pyridazin-3-yl)chroman-7-sulfonamide] | 31 | 1.43 |  | 
O=S(=O)(Nc1ncccn1)c1ccc2c(c1)OCC[C@@H]2c1ccc(C(F)(F)F)cc1CCF (racemic) [Example 153, (R/S)-4-(2-(2-fluoroethyl)-4-(trifluoromethyl)phenyl)-N-(pyrimidin-2-yl)chroman-7-sulfonamide] | 39 |  |  | 35
O=S(=O)(Nc1ncc(F)cn1)c1ccc2c(c1)OCC[C@@H]2c1ccc(C(F)(F)F)cc1CCF (racemic) [Example 154, (R/S)-4-(2-(2-fluoroethyl)-4-(trifluoromethyl)phenyl)-N-(5-fluoropyrimidin-2-yl)chroman-7-sulfonamide] | 83 |  | > 10 | 
O=S(=O)(Nc1ccncn1)c1ccc2c(c1)OCC[C@@H]2c1ccc(C(F)(F)F)cc1CCF (racemic) [Example 155, (R/S)-4-(2-(2-fluoroethyl)-4-(trifluoromethyl)phenyl)-N-(pyrimidin-4-yl)chroman-7-sulfonamide] | 4 |  | > 10 | 
O=S(=O)(Nc1cccnn1)c1ccc2c(c1)OCC[C@@H]2c1ccc(C(F)(F)F)cc1CCF (racemic) [Example 156, (R/S)-4-(2-(2-fluoroethyl)-4-(trifluoromethyl)phenyl)-N-(pyridazin-3-yl)chroman-7-sulfonamide] | 42 |  |  | 36
O=S(=O)(Nc1cccc(F)n1)c1ccc2c(c1)OCC[C@@H]2c1ccc(C(F)(F)F)cc1CCF (racemic) [Example 157, (R/S)-4-(2-(2-fluoroethyl)-4-(trifluoromethyl)phenyl)-N-(6-fluoropyridin-2-yl)chroman-7-sulfonamide] | 42 |  | > 10 | 
O=S(=O)(Nc1ncccn1)c1ccc2c(c1)OCC[C@@H]2c1ccc(C(F)(F)F)cc1CCCF (racemic) [Example 158, (R/S)-4-(2-(3-fluoropropyl)-4-(trifluoromethyl)phenyl)-N-(pyrimidin-2-yl)chroman-7-sulfonamide] | 130 | 0.505 |  | 
O=S(=O)(Nc1ncc(F)cn1)c1ccc2c(c1)OCC[C@@H]2c1ccc(C(F)(F)F)cc1CCCF (racemic) [Example 159, (R/S)-4-(2-(3-fluoropropyl)-4-(trifluoromethyl)phenyl)-N-(5-fluoropyrimidin-2-yl)chroman-7-sulfonamide] | 10 | 0.943 |  | 
O=S(=O)(Nc1ccncn1)c1ccc2c(c1)OCC[C@@H]2c1ccc(C(F)(F)F)cc1CCCF (racemic) [Example 160, (R/S)-4-(2-(3-fluoropropyl)-4-(trifluoromethyl)phenyl)-N-(pyrimidin-4-yl)chroman-7-sulfonamide] | 0.7 |  |  | 61
O=S(=O)(Nc1cccnn1)c1ccc2c(c1)OCC[C@@H]2c1ccc(C(F)(F)F)cc1CCCF (racemic) [Example 161, (R/S)-4-(2-(3-fluoropropyl)-4-(trifluoromethyl)phenyl)-N-(pyridazin-3-yl)chroman-7-sulfonamide] | 12 | 1.35 |  | 
O=S(=O)(Nc1cccc(F)n1)c1ccc2c(c1)OCC[C@@H]2c1ccc(C(F)(F)F)cc1CCCF (racemic) [Example 162, (R/S)-4-(2-(3-fluoropropyl)-4-(trifluoromethyl)phenyl)-N-(6-fluoropyridin-2-yl)chroman-7-sulfonamide] | 0.7 | 2.64 |  | 
O=S(=O)(Nc1ncccn1)c1ccc2c(c1)OCC[C@@H]2c1ccc(C(F)(F)F)cc1CCCCF (racemic) [Example 163, (R/S)-4-(2-(4-fluorobutyl)-4-(trifluoromethyl)phenyl)-N-(pyrimidin-2-yl)chroman-7-sulfonamide] | 42 | 0.307 |  | 
O=S(=O)(Nc1ncc(F)cn1)c1ccc2c(c1)OCC[C@@H]2c1ccc(C(F)(F)F)cc1CCCCF (racemic) [Example 164, (R/S)-4-(2-(4-fluorobutyl)-4-(trifluoromethyl)phenyl)-N-(5-fluoropyrimidin-2-yl)chroman-7-sulfonamide] | 61 |  |  | 81
O=S(=O)(Nc1ccncn1)c1ccc2c(c1)OCC[C@@H]2c1ccc(C(F)(F)F)cc1CCCCF (racemic) [Example 165, (R/S)-4-(2-(4-fluorobutyl)-4-(trifluoromethyl)phenyl)-N-(pyrimidin-4-yl)chroman-7-sulfonamide] | 5 | 0.303 |  | 
O=S(=O)(Nc1cccnn1)c1ccc2c(c1)OCC[C@@H]2c1ccc(C(F)(F)F)cc1CCCCF (racemic) [Example 166, (R/S)-4-(2-(4-fluorobutyl)-4-(trifluoromethyl)phenyl)-N-(pyridazin-3-yl)chroman-7-sulfonamide] | 50 | 0.134 |  | 
O=S(=O)(Nc1cccc(F)n1)c1ccc2c(c1)OCC[C@@H]2c1ccc(C(F)(F)F)cc1CCCCF (racemic) [Example 167, (R/S)-4-(2-(4-fluorobutyl)-4-(trifluoromethyl)phenyl)-N-(6-fluoropyridin-2-yl)chroman-7-sulfonamide] | 58 | 0.241 |  | 
O=S(=O)(Nc1ncc(F)cn1)c1ccc2c(c1)OCC[C@@H]2c1ccc(C(F)(F)F)cc1O[C@H]1CCOC1 (racemic) [Example-182, (S/R)—N-(5-fluoropyrimidin-2-yl)-4-(2-(((S)-tetrahydrofuran-3-yl)oxy)-4-(trifluoromethyl)phenyl)chroman-7-sulfonamide] | 55 |  |  | 30
O=S(=O)(Nc1ccncn1)c1ccc2c(c1)OCC[C@@H]2c1ccc(C(F)(F)F)cc1O[C@H]1CCOC1 (racemic) [Example-183, (S/R)—N-(pyrimidin-4-yl)-4-(2-(((S)-tetrahydrofuran-3-yl)oxy)-4-(trifluoromethyl)phenyl)chroman-7-sulfonamide] | 11 |  | > 10 | 
O=S(=O)(Nc1cccnn1)c1ccc2c(c1)OCC[C@@H]2c1ccc(C(F)(F)F)cc1O[C@H]1CCOC1 (racemic) [Example-184, (S/R)—N-(pyridazin-3-yl)-4-(2-(((S)-tetrahydrofuran-3-yl)oxy)-4-(trifluoromethyl)phenyl)chroman-7-sulfonamide] | 170 |  |  | 67
